{"source": "patent US20190091198A1", "about": "“C[…] CANNABIS-BASED COMPOSITIONS AND METHODS FOR THE TREATMENT OF IN[…] THE GASTROINTESTINAL TRACT” (TO PHARMACEUTICALS LLC, priority 2016, published 2019)", "assay_type": "in vivo, human", "settings": "for maximal mean blood (serum) level: single sublingual dose of Avidekel oil, 4 drops (6.4 mg Δ9-THC and 26 mg CBD), N=7, LC-MS/MS", "description": "Blood samples were withdrawn at time 0 and after administration of Avidekel oil extract, a sublingual dose 4 drops. Blood samples were withdrawn in intervals of 15, 30, 45, 60 and 90 min., and 2, 3, 4, 5, and 6 h., and stored at −70° C. until analysis at NMS Labs using LC-MS/MS.\nFIG. 2A-2D show mean cannabinoid blood levels after administration of a single dose of Avidekel oil (6.4 mg Δ^9-THC and 26 mg CBD).", "key": {"[1]": {"settings": "single dose of Avidekel oil (6.4 mg Δ9-THC and 26 mg CBD), N=7"}}, "data": [{"smiles": "CCCCCc1cc(O)c2c(c1)OC(C)(C)[C@@H]1CCC(C)=C[C@@H]21", "note": "[Δ^9-THC, (−)-(6aR,10aR)-6,6,9-Trimethyl-3-methylcyclohex-2-en-pentyl-6a,7,8,10α-tetrahydro-6H-benzo[c]chromen-1-ol, reference compound]", "values": [{"measurement": "blood levels 6 h after administration", "setting": "[1]", "value": "typical to those after 24 hours of Cannabis washout"}, {"measurement": "maximal mean blood (serum) level", "value": "2.3 ± 2.2", "unit": "ng/mL"}]}, {"smiles": "CCCCCc1cc(O)c2c(c1)OC(C)(C)[C@@H]1CCC(CO)=C[C@@H]21", "note": "[11-Hydroxy Δ^9-THC]", "values": [{"measurement": "mean blood level after the drop from the maximum", "setting": "single dose of Avidekel oil (6.4 mg Δ9-THC and 26 mg CBD), N=7, within 6 h sampling period", "value": "1.9 ± 1.1", "unit": "ng/mL"}, {"measurement": "maximal mean blood (serum) level", "value": "4.5 ± 4.2", "unit": "ng/mL"}]}, {"smiles": "C=C(C)[C@@H]1CCC(C)=C[C@H]1c1c(O)cc(CCCCC)cc1O", "note": "[CBD, 2-[(1R,6R)-6-isopropenyl-3-1-yl]-5-pentylbenzene-1,3-diol, reference compound]", "values": [{"measurement": "maximal mean blood (serum) level", "value": "6.2 ± 5.9", "unit": "ng/mL"}]}, {"smiles": "CCCCCc1cc(O)c2c(c1)OC(C)(C)[C@@H]1CCC(C(=O)O)=C[C@@H]21", "note": "[Δ^9 Carboxy THC]", "values": [{"measurement": "mean blood level after 90 min", "setting": "[1]", "value": "34.5 ± 47.7", "unit": "ng/mL"}, {"measurement": "mean blood level reached during the 6 h period (still rising)", "setting": "[1]", "value": "75.5 ± 77.0", "unit": "ng/mL"}]}]}
